Experiments:
DNA = assay: Microscale thermophoresis (MST) affinity for DNA; format: binding
pri-miR-96 [1] = assay: Microscale thermophoresis (MST) affinity for pri-miR-96; format: binding
mature miR-96 [2] = conditions: triple negative breast cancer (TNBC) cells; cited from earlier work
pri-miR-96 [3] = assay: RT-qPCR of pri-miR-96 levels; format: cell-based
MDA-MB-231 cells = conditions: TNBC cells; cited from earlier work
mature miR-96 [4] = assay: RT-qPCR of mature miR-96 levels; format: cell-based; conditions: MDA-MB-231 TNBC cells; 2 complexed with Fe2+ (1 equivalent)
FOXO1 protein = conditions: TNBC cells; cited from earlier work

Compound | Kd (DNA) | Kd (pri-miR-96 [1]) | Effect on production of mature miR-96 (earlier study) (mature miR-96 [2]) | Effect on pri-miR-96 levels (pri-miR-96 [3]; MDA-MB-231 TNBC cells, 2 complexed with Fe2+ (1 equivalent)) | Competition of the pri-miR-96 cleavage caused by 2 (pri-miR-96 [3]; increasing concentrations of 1 (5 to 500 nM), constant 2 (500 nM), MDA-MB-231 cells) | Effect on apoptosis (earlier study) (MDA-MB-231 cells) | Effect on mature miR-96 levels (mature miR-96 [4]) | Effect on FOXO1 (earlier study) (FOXO1 protein)
Cc1c(N)nc([C@H](CC(N)=O)NC[C@H](N)C(N)=O)nc1C(=O)N[C@H](C(=O)N[C@H](C)[C@@H](O)[C@H](C)C(=O)N[C@H](C(=O)NCCc1nc(-c2nc(C(=O)NCCCNCCCCN)cs2)cs1)[C@@H](C)O)[C@@H](O[C@@H]1O[C@@H](CO)[C@@H](O)[C@H](O)[C@@H]1O[C@@H]1O[C@H](CO)[C@@H](O)[C@H](OC(N)=O)[C@@H]1O)c1cnc[nH]1 [bleomycin A5] | ~1000 nM | – | – | – | – | – | – | –
Targaprimir-96 [Compound 1] | – | 39 ± 18 nM | inhibited the production of mature miR-96 | increased | effectively competed off | triggered apoptosis | reduced | de-repressed

Source: patent US12661409B2, “Target validation and profiling of the RNA targets of small molecules” (priority 2018, dated 2026)
